# Laboratory results reported in ChEMBL document CHEMBL3885861, “Open TG-GATES”.
# Species: Rattus norvegicus
# Test: Open TG-GATES - Regimen: Single
# Type: toxicity, organism-based, Sprague-Dawley
# Set-up: regimen Single, gender Male, age 6 weeks
# Conditions: in vivo, po, route gavage; for Bas / Eos / Fbg / Hb / Lym / MCH / MCHC / MCV / Mono / Neu / RBC / Ret / WBC / APTT: tissue Blood; for KIDNEY_L / KIDNEY_R / KIDNEY_TOTAL: tissue Kidney; for LIVER: tissue Liver; for ALP / ALT / AST / CRE / Ca / Cl / DBIL / GLC / IP / K / LDH / Na / PL / RALB / TBIL / TC / TG / TP / gamma-GTP: tissue Plasma
# [1] = 75 mg/kg, 3 h, dose level Middle
# [2] = 75 mg/kg, 6 h, dose level Middle
# [3] = 75 mg/kg, 9 h, dose level Middle
# [4] = 75 mg/kg, 24 h, dose level Middle
# [5] = 250 mg/kg, 3 h, dose level High
# [6] = 250 mg/kg, 6 h, dose level High
# [7] = 250 mg/kg, 9 h, dose level High
# [8] = 250 mg/kg, 24 h, dose level High
compound,measurement,setting,value
O=C1CN(/N=C/c2ccc(-c3ccc([N+](=O)[O-])cc3)o2)C(O)=N1 [DANTROLENE],Bas,[1],0%
same,Eos,[1],1%
same,Fbg,[1],217.6 mg/dL
same,Hb,[1],14.2 g/dL
same,Lym,[1],70.4%
same,MCH,[1],22.7 pg
same,MCHC,[1],34.1%
same,MCV,[1],66.7 fL
same,Mono,[1],8%
same,Neu,[1],20.6%
same,RBC,[1],623.6 x10_4/ul
same,Ret,[1],10.8%
same,WBC,[1],82.6 x10_2/uL
same,KIDNEY_L,[1],0.9 g
same,KIDNEY_R,[1],1 g
same,KIDNEY_TOTAL,[1],1.9 g
same,LIVER,[1],9.5 g
same,ALP,[1],747.2 IU/L
same,ALT,[1],32.4 IU/L
same,AST,[1],60.2 IU/L
same,CRE,[1],0.5 mg/dL
same,Ca,[1],10.3 mg/dL
same,Cl,[1],101.4 meq/L
same,DBIL,[1],0.06 mg/dL
same,GLC,[1],213.4 mg/dL
same,IP,[1],11.1 mg/dL
same,K,[1],4.7 meq/L
same,LDH,[1],105.8 IU/L
same,Na,[1],138 meq/L
same,PL,[1],148.2 mg/dL
same,RALB,[1],3.9 g/dL
same,TBIL,[1],0.3 mg/dL
same,TC,[1],85.4 mg/dL
same,TG,[1],41.4 mg/dL
same,TP,[1],5.7 g/dL
same,gamma-GTP,[1],1.8 IU/L
same,TERMINAL_BW,[2],191.2 g
same,APTT,[2],17 s
same,Bas,[2],0%
same,Eos,[2],1%
same,Fbg,[2],220.6 mg/dL
same,Hb,[2],14.6 g/dL
same,Lym,[2],73.2%
same,MCH,[2],22.4 pg
same,MCHC,[2],34.3%
same,MCV,[2],65.2 fL
same,Mono,[2],8.6%
same,Neu,[2],17.2%
same,RBC,[2],650.4 x10_4/ul
same,Ret,[2],12.7%
same,WBC,[2],82.9 x10_2/uL
same,KIDNEY_L,[2],0.9 g
same,KIDNEY_R,[2],0.9 g
same,KIDNEY_TOTAL,[2],1.9 g
same,LIVER,[2],9 g
same,ALP,[2],749.6 IU/L
same,ALT,[2],34 IU/L
same,AST,[2],64.2 IU/L
same,CRE,[2],0.5 mg/dL
same,Ca,[2],10.3 mg/dL
same,Cl,[2],102.8 meq/L
same,DBIL,[2],0.06 mg/dL
same,GLC,[2],211.4 mg/dL
same,IP,[2],9.6 mg/dL
same,K,[2],4.6 meq/L
same,LDH,[2],102 IU/L
same,Na,[2],138.8 meq/L
same,PL,[2],141.8 mg/dL
same,RALB,[2],3.8 g/dL
same,TBIL,[2],0.3 mg/dL
same,TC,[2],80.4 mg/dL
same,TG,[2],30.4 mg/dL
same,TP,[2],5.6 g/dL
same,gamma-GTP,[2],1.6 IU/L
same,TERMINAL_BW,[3],191.7 g
same,APTT,[3],16.9 s
same,Bas,[3],0%
same,Eos,[3],1%
same,Fbg,[3],217.8 mg/dL
same,Hb,[3],14.3 g/dL
same,Lym,[3],78.2%
same,MCH,[3],21.6 pg
same,MCHC,[3],32.9%
same,MCV,[3],65.6 fL
same,Mono,[3],7.4%
same,RBC,[3],663.8 x10_4/ul
same,Ret,[3],9.8%
same,WBC,[3],74.6 x10_2/uL
same,KIDNEY_L,[3],0.9 g
same,KIDNEY_R,[3],0.9 g
same,KIDNEY_TOTAL,[3],1.8 g
same,LIVER,[3],8.2 g
same,ALP,[3],710.6 IU/L
same,ALT,[3],23.2 IU/L
same,AST,[3],53 IU/L
same,CRE,[3],0.5 mg/dL
same,Ca,[3],10.4 mg/dL
same,Cl,[3],105.2 meq/L
same,DBIL,[3],0.054 mg/dL
same,GLC,[3],205.8 mg/dL
same,IP,[3],9.5 mg/dL
same,K,[3],5.2 meq/L
same,LDH,[3],103.2 IU/L
same,Na,[3],138.2 meq/L
same,PL,[3],148 mg/dL
same,RALB,[3],3.8 g/dL
same,TBIL,[3],0.4 mg/dL
same,TC,[3],87.4 mg/dL
same,TG,[3],26.4 mg/dL
same,TP,[3],5.5 g/dL
same,gamma-GTP,[3],1.6 IU/L
same,TERMINAL_BW,[4],190.1 g
same,APTT,[4],16.9 s
same,Bas,[4],0%
same,Eos,[4],0.8%
same,Fbg,[4],202.2 mg/dL
same,Hb,[4],13.8 g/dL
same,Lym,[4],86.2%
same,MCH,[4],21.9 pg
same,MCHC,[4],33.6%
same,MCV,[4],65.3 fL
same,Mono,[4],7.2%
same,Neu,[4],6.2%
same,RBC,[4],631 x10_4/ul
same,Ret,[4],11.5%
same,WBC,[4],86.1 x10_2/uL
same,KIDNEY_L,[4],0.9 g
same,KIDNEY_R,[4],0.9 g
same,KIDNEY_TOTAL,[4],1.9 g
same,LIVER,[4],9 g
same,ALP,[4],1061.6 IU/L
same,ALT,[4],32.8 IU/L
same,AST,[4],56.2 IU/L
same,CRE,[4],0.5 mg/dL
same,Ca,[4],10.9 mg/dL
same,Cl,[4],105 meq/L
same,DBIL,[4],0.018 mg/dL
same,GLC,[4],189 mg/dL
same,IP,[4],7.7 mg/dL
same,K,[4],4.3 meq/L
same,LDH,[4],104.6 IU/L
same,Na,[4],141.4 meq/L
same,PL,[4],147.8 mg/dL
same,RALB,[4],3.9 g/dL
same,TBIL,[4],0.4 mg/dL
same,TC,[4],83.6 mg/dL
same,TG,[4],73.2 mg/dL
same,TP,[4],5.7 g/dL
same,gamma-GTP,[4],1 IU/L
same,TERMINAL_BW,[5],193.5 g
same,APTT,[5],16.6 s
same,Bas,[5],0%
same,Eos,[5],1.4%
same,Fbg,[5],218.2 mg/dL
same,Hb,[5],14.5 g/dL
same,Lym,[5],76.6%
same,MCH,[5],22 pg
same,MCHC,[5],34.2%
same,MCV,[5],64.3 fL
same,Mono,[5],6.8%
same,Neu,[5],15%
same,RBC,[5],658 x10_4/ul
same,Ret,[5],11.7%
same,WBC,[5],67.2 x10_2/uL
same,KIDNEY_L,[5],0.9 g
same,KIDNEY_R,[5],0.9 g
same,KIDNEY_TOTAL,[5],1.9 g
same,LIVER,[5],9.3 g
same,ALP,[5],867.8 IU/L
same,ALT,[5],35.6 IU/L
same,AST,[5],68.8 IU/L
same,CRE,[5],0.5 mg/dL
same,Ca,[5],10.4 mg/dL
same,Cl,[5],100.6 meq/L
same,DBIL,[5],0.056 mg/dL
same,GLC,[5],223.4 mg/dL
same,IP,[5],10.3 mg/dL
same,K,[5],4.5 meq/L
same,LDH,[5],100.4 IU/L
same,Na,[5],138.4 meq/L
same,PL,[5],142 mg/dL
same,RALB,[5],3.9 g/dL
same,TBIL,[5],0.3 mg/dL
same,TC,[5],81 mg/dL
same,TG,[5],41.8 mg/dL
same,TP,[5],5.7 g/dL
same,gamma-GTP,[5],2.2 IU/L
same,TERMINAL_BW,[6],189.5 g
same,APTT,[6],17.8 s
same,Bas,[6],0%
same,Eos,[6],0.8%
same,Fbg,[6],212.2 mg/dL
same,Hb,[6],14.7 g/dL
same,Lym,[6],68.4%
same,MCH,[6],22.4 pg
same,MCHC,[6],34.4%
same,MCV,[6],65.2 fL
same,Mono,[6],6.2%
same,Neu,[6],24.6%
same,RBC,[6],656.8 x10_4/ul
same,Ret,[6],12.9%
same,WBC,[6],66.9 x10_2/uL
same,KIDNEY_L,[6],0.9 g
same,KIDNEY_R,[6],0.9 g
same,KIDNEY_TOTAL,[6],1.8 g
same,LIVER,[6],8.3 g
same,ALP,[6],725.6 IU/L
same,ALT,[6],29.6 IU/L
same,AST,[6],58.6 IU/L
same,CRE,[6],0.5 mg/dL
same,Ca,[6],10.3 mg/dL
same,Cl,[6],102.4 meq/L
same,DBIL,[6],0.086 mg/dL
same,GLC,[6],219.6 mg/dL
same,IP,[6],9 mg/dL
same,K,[6],4.4 meq/L
same,LDH,[6],110.6 IU/L
same,Na,[6],137.6 meq/L
same,PL,[6],133.4 mg/dL
same,RALB,[6],3.9 g/dL
same,TBIL,[6],0.3 mg/dL
same,TC,[6],79.2 mg/dL
same,TG,[6],19.2 mg/dL
same,TP,[6],5.6 g/dL
same,gamma-GTP,[6],1.2 IU/L
same,TERMINAL_BW,[7],185.8 g
same,APTT,[7],19.1 s
same,Bas,[7],0%
same,Eos,[7],0.2%
same,Fbg,[7],216.8 mg/dL
same,Hb,[7],14.5 g/dL
same,Lym,[7],77.8%
same,MCH,[7],21.6 pg
same,MCHC,[7],32.9%
same,MCV,[7],65.6 fL
same,Mono,[7],5.8%
same,Neu,[7],15.8%
same,RBC,[7],669.4 x10_4/ul
same,Ret,[7],12.3%
same,WBC,[7],55.5 x10_2/uL
same,KIDNEY_L,[7],0.9 g
same,KIDNEY_R,[7],0.9 g
same,KIDNEY_TOTAL,[7],1.8 g
same,LIVER,[7],8 g
same,ALP,[7],664.6 IU/L
same,ALT,[7],21.4 IU/L
same,AST,[7],50.4 IU/L
same,CRE,[7],0.6 mg/dL
same,Ca,[7],10.5 mg/dL
same,Cl,[7],103.6 meq/L
same,DBIL,[7],0.064 mg/dL
same,GLC,[7],212.2 mg/dL
same,IP,[7],8.9 mg/dL
same,K,[7],4.9 meq/L
same,LDH,[7],89.8 IU/L
same,Na,[7],136.8 meq/L
same,PL,[7],144.2 mg/dL
same,RALB,[7],3.8 g/dL
same,TBIL,[7],0.4 mg/dL
same,TC,[7],90.2 mg/dL
same,TG,[7],17.2 mg/dL
same,TP,[7],5.7 g/dL
same,gamma-GTP,[7],1.4 IU/L
same,TERMINAL_BW,[8],185 g
same,APTT,[8],17.5 s
same,Bas,[8],0%
same,Eos,[8],0.8%
same,Fbg,[8],207 mg/dL
same,Hb,[8],14.7 g/dL
same,Lym,[8],87.6%
same,MCH,[8],21.8 pg
same,MCHC,[8],33.4%
same,MCV,[8],65.3 fL
same,Mono,[8],5.8%
same,Neu,[8],5.8%
same,RBC,[8],675 x10_4/ul
same,Ret,[8],13%
same,WBC,[8],72.5 x10_2/uL
same,KIDNEY_L,[8],0.9 g
same,KIDNEY_R,[8],0.9 g
same,KIDNEY_TOTAL,[8],1.9 g
same,LIVER,[8],8.6 g
same,ALP,[8],722.6 IU/L
same,ALT,[8],24.6 IU/L
same,AST,[8],46.2 IU/L
same,CRE,[8],0.5 mg/dL
same,Ca,[8],11.1 mg/dL
same,Cl,[8],103.4 meq/L
same,DBIL,[8],0.022 mg/dL
same,GLC,[8],191.2 mg/dL
same,IP,[8],9.1 mg/dL
same,K,[8],4.8 meq/L
same,LDH,[8],102.8 IU/L
same,Na,[8],140.6 meq/L
same,PL,[8],136 mg/dL
same,RALB,[8],4 g/dL
same,TBIL,[8],0.3 mg/dL
same,TC,[8],79.6 mg/dL
same,TG,[8],21.8 mg/dL
same,TP,[8],5.7 g/dL
same,gamma-GTP,[8],1.6 IU/L
